Laboratory results reported in patent US4300557A, “Method for treating intraocular malignancies” (The United States of America as represented by the …, priority 1980, dated 1981).
Values joined by “and” are separate entries in the source; they are usually repeats but may differ in a detail not shown here. Equal values may be shown once.

Key:
E. coli = assay: Microbiological assay of BCNU: inhibition of E. coli in agar plates; assay type: cell-based
Protocol: BCNU activity was evaluated by placing a silicone balloon containing BCNU in 0.2 ml of ethanol in a gelled agar plate seeded with E. coli (10^6 colonies/ml). The balloon was covered with a layer of seeded agar. The culture was incubated overnight at 35° C. and the zone of inhibition was measured. The balloons were transferred daily to new plates and the procedure repeated as long as activity was detected. The diameters of the zones of inhibition were compared with a standard semilogarythmic plot obtained using known amount of BCNU absorbed in filter paper about the size of the balloons. […] In control experiments with balloons filled with 0.2 ml of ethanol no inhibition of E. coli was observed. After a single overnight incubation, all of the alcohol had diffused from the balloon.
The smaller zone was very clear, and probably totally free of bacterial growth. The larger one was distinct, but had some diffuse bacterial growth. […] The microbiological assay is a useful test of cytotoxic activity of the implants, but the results are only semiquantitative, owing to simultaneous decomposition and diffusion of BCNU.
A 10 mg sample of solid was placed in a 7-mm-diameter reservoir made of two silicone membranes (0.1 mm thick) separated by a silicone rubber ring spacer (1.0 mm wide×1.5 mm thick) and glued with silicone adhesive. The sandwich-type silicone device containing 10 mg of solid BCNU was imbedded in agar plates seeded with E. coli and incubated repeatedly as in Example 5(a).

Brown-Pearce epithelioma = assay: In vivo testing in rabbits with intracameral Brown-Pearce epithelioma, clinical results; parameters: species or system New Zealand female albino rabbits; reduction in tumor growth: dose or concentration left out as unconfirmed; details: for Day Tumor Destroyed Whole Eye, Treated Eye: * eye not yet destroyed by day of enucleation
Text: Preoperative examination of 28 eyes in 14 New Zealand femal albino rabbits weighing 2.0 to 2.5 kg included biomicroscopy, tonotometry, and indirect ophthalmoscopy. All animals had normal eyes. Both eyes of each animal were inoculated intracamerally with Brown-Pearce epithelioma tissue by the technique at 993 of Liu et al., Invest. Ophthalmol Visual Sci., Vol. 17 (1978).
Three days after tumor tissue implantation, a silicone device described in Example 1 was implanted episclerally in each eye. Animals were anesthetized with sodium pentobarbital 24 mg/kg body weight administered intravenously. After routine preparation of the rabbit and the eyes, a pocket beneath the conjunctiva and Tenon's capsule was made in the upper temporal quadrant of the eye. The silicone device was inserted into the pocket but the small tube remained accessible to permit injection of test substance. Two 7-0 silk sutures were applied on both shoulders of the silicone device and on the episcleral tissue at the pars plana to hold the device in position. The conjunctiva was closed with two 7-0 silk sutures. […] 5. The injecting tube was fixed on the upper fornix.
Seven animals (Group 1A) received 3.0 mg of BCNU in 0.15 ml of sesame oil in one eye on the third, sixth, and ninth days after tumor implantation (total dose 9.0 mg). Three animals (Group 1B) received 12.0 mg of BCNU in 0.15 ml of sesame oil on the same schedule (total dose 36.0/mg). […] The fellow eyes served as controls and received diluent only.
Ocular examinations were made on alternate days during the 20 days following tumor implantation; at that time all eyes were enucleated. The effectiveness of treatment was measured by (1) comparing the extent of tumor growth in the anterior chamber of treated and control eyes, (2) noting the occurrence of distortion and perforation of the globe due to tumor growth, (3) weighing all eyes following enucleation, and (4) comparing the histopathologic changes in the eyes.
Clinical results, tabulated below, indicate the day on which the tumor occupied the anterior chamber and the weight of the enucleated eyes. The first day was the day on which tumor tissue was implanted.

[1] = Solubility and stability of BCNU in vehicles (statements); assay type: physicochemical
[2] = Group IA: 3.0 mg BCNU in sesame oil, days 3, 6 and 9
[3] = Group IB: 12.0 mg BCNU in sesame oil, days 3, 6 and 9
[4] = Group II: 13.0 mg BCNU in pure ethanol, days 3 and 6

O=NN(CCCl)C(=O)NCCCl [BCNU, 1,3-bis-(2-chloroethyl)-1-nitrosourea]
depletion of drug activity, solid BCNU in sandwich-type silicone device (E. coli; 10 mg solid BCNU versus 10 mg BCNU in 0.2 ml ethanol in balloon): depletion of drug activity similar to that obtained with 10 mg BCNU in 0.2 ml ethanol in a silicone balloon
activity in the seventh incubation (E. coli; 30 and 40 mg BCNU in 0.2 ml ethanol): zero activity
activity in consecutive incubations (E. coli; 30 and 40 mg BCNU in 0.2 ml ethanol, daily incubations at 35° C.): comparable activity for six consecutive incubations
duration of inhibition of growth of E. coli cultures (E. coli; 30 or 40 mg BCNU in ethanol, silicone microballoons): 6 days
zones of inhibition (E. coli; BCNU in 0.2 ml ethanol, balloons, overnight 35° C.): two concentric and distinct zones of inhibition
BCNU remaining inside balloons after first incubation in agar (E. coli; BCNU in ethanol): essentially pure BCNU remains inside the balloons
BCNU content of balloons after first night's incubation (E. coli; BCNU in ethanol, after first overnight incubation): ~100%
inhibitory activity versus filter paper impregnated with known amounts of BCNU (E. coli; ethanolic solutions in silicone microballoons): unimpaired
reduction of tumor growth (Brown-Pearce epithelioma; 3.0 or 12.0 mg BCNU in 0.15 ml sesame oil, days 3, 6 and 9): Significant reduction of tumor growth
therapeutic results (Brown-Pearce epithelioma; BCNU in absolute ethanol, silicone balloons 0.1-0.2 mm wall): good therapeutic results
Aver. wt of eyes after enucleation, treated eye (Brown-Pearce epithelioma; Group I (IA and IB), sesame oil, 10 treated eyes): 5.2 g
growth of the implanted tumor tissue in the anterior chamber (Brown-Pearce epithelioma; Group I, BCNU in sesame oil): slowed in all 10 eyes
Aver. wt of eyes after enucleation, treated eye (Brown-Pearce epithelioma; Group IA, 3.0 mg in sesame oil): 5.7 g
eyes retaining normal shape and size without distortion for 15 days (Brown-Pearce epithelioma; Group IA, three doses of 3.0 mg in sesame oil, 15 days after tumor implantation): six eyes of the seven
Day Tumor Occupied Anterior Chamber, Treated Eye (Brown-Pearce epithelioma; [2]): 13 days and 14 days and 12 days and 18 days
Day Tumor Destroyed Whole Eye, Treated Eye (Brown-Pearce epithelioma; [2]): 18 days and 19 days and 17 days and 16 days and > 18 days and 15 days
Aver. wt of eyes after enucleation, treated eye (Brown-Pearce epithelioma; Group IB, 12.0 mg in sesame oil): 4.1 g
eyes retaining normal shape and size without distortion for 19 days (Brown-Pearce epithelioma; Group IB, three doses of 12.0 mg in sesame oil, 19 days after tumor implantation): Two eyes of the three
Day Tumor Occupied Anterior Chamber, Treated Eye (Brown-Pearce epithelioma; [3]): 20 days and 17 days and 11 days
Weight of Eyes After Enucleation, Treated Eye (Brown-Pearce epithelioma; [3]): 3.5 g and 5.2 g
Day Tumor Destroyed Whole Eye, Treated Eye (Brown-Pearce epithelioma; [3]): > 20 days and 20 days and 17 days
average weight of the four treated eyes after enucleation (Brown-Pearce epithelioma; Group II, BCNU in pure ethanol): 3.1 gm
response of treated eyes (Brown-Pearce epithelioma; Group II, BCNU in pure ethanol): Each of the four eyes treated showed good response
tumor tissue growth in the anterior chamber on the fifteenth day (Brown-Pearce epithelioma; Group II, BCNU in pure ethanol, day 15): almost completely arrested in three of the four treated eyes
eyes retaining normal shape and size on the twentieth day (Brown-Pearce epithelioma; Group II, BCNU in pure ethanol, day 20): all four treated eyes retained their normal shape and size
Aver. wt of eyes after enucleation, treated eye (Brown-Pearce epithelioma; Group II, pure ethanol): 3.1 g
Day Tumor Occupied Anterior Chamber, Treated Eye (Brown-Pearce epithelioma; [4]): 18 days and 15 days and 20 days
Weight of Eyes After Enucleation, Treated Eye (Brown-Pearce epithelioma; [4]): 2.8 g and 3.2 g and 3.3 g
Day Tumor Destroyed Whole Eye, Treated Eye (Brown-Pearce epithelioma; [4]): > 20 days and > 29 days
reduction in tumor growth (Brown-Pearce epithelioma; absolute ethanol (so in the source), days 3 and 6): greatest reduction in tumor growth
Aver. wt. of eyes after enucleation, treated eye (Brown-Pearce epithelioma; all eyes (Groups I and II)): 4.6 g
solubility in absolute ethanol ([1]; absolute ethanol as solvent for BCNU): excellent solvent for BCNU
solubility in sesame oil ([1]; sesame oil): fairly soluble
stability in sesame oil ([1]; sesame oil): relatively stable
